The values below come from US20220135663A1, “Method of treatment of Chronic Low Back Pain” (Pfizer Inc., priority 2019, published 2022).

SMILES strings stand for the structures.

The test system of series [1] is subjects with chronic low back pain (CLBP). The series is described as follows: Study 1063, Phase 3 in Japan: efficacy (LBPI, RMDQ) in chronic low back pain. The class given is in vivo, human. The conditions noted are these: 100 mg BID. How it is done: Patients received a total of seven SC injections, separated by 8 weeks (tanezumab or
Treatment groups were as follows: 1. […] Placebo for tanezumab SC and celecoxib BID.
The Intent-to-Treat (ITT) analysis set included all patients who were randomized and received at least one dose of SC study medication (either tanezumab or placebo). This analysis set was primary for all efficacy endpoints, which were analyzed according to randomization assignment, and was labeled as the ‘ITT population’.

Series [2] shares this test system. The series is described as follows: Study 1063: adverse events and adjudicated joint safety.
Description: This second study (termed “Study 1063) was a randomized, double-blind, active-controlled, multicenter, parallel-group Phase 3 study in Japan to evaluate the safety and efficacy of tanezumab when administered by SC injection for up to 56 weeks in subjects with chronic low back pain (CLBP). […] Patients were also required to be experiencing some benefit from their current stable dose regimen of oral therapy of NSAID (celecoxib 200 mg/day [100 mg BID], loxoprofen 120 to 180 mg/day or meloxicam 5 to 15 mg/day) treatment, but still required additional pain relief at screening. […] Patients with a diagnosis of osteoarthritis of the knee or hip as defined by the American College of Rheumatology combined clinical and radiographic criteria or who had Kellgren Lawrence Grade ≥2 radiographic evidence of hip osteoarthritis or Kellgren Lawrence Grade ≤3 radiographic evidence of knee osteoarthritis were excluded.
Treatment groups were as follows: 1. Tanezumab 5 mg SC and placebo for celecoxib BID; 2. Tanezumab 10 mg SC and placebo for celecoxib BID; 3. Placebo for tanezumab SC and celecoxib BID.
This study was designed with a total (post-randomization) duration of 80 weeks and consisted of three periods: (1) a Screening period (up to a maximum of 37 days), (2) a Double-blind Treatment period (56 weeks), and (3) a Safety Follow-up (24 weeks) Period (FIG. 8). The Screening Period included a Washout Period (lasting 2-32 days) if required, and an Initial Pain Assessment Period (IPAP) (5 days prior to Randomization/Baseline; minimum 4 days).
The Safety analysis set included all patients who received at least one dose of SC study treatment. This analysis set was primary for all safety endpoints, which were analyzed according to treatment received, and was labeled as the ‘Safety population’. In this study, the ITT and Safety analysis sets were identical.
The next series deals with low back pain. The conditions noted are these: 500 mg BID; prior study; cited from earlier work.
For series [3], the system named is adult patients with chronic low back pain. As to the kind of experiment: Study 1059, Phase 3: efficacy (LBPI, RMDQ) in chronic low back pain. The class given is in vivo, human. The following applies: 100-300 mg daily oral. How it is done:
The Low Back Pain Intensity (LBPI) measure is assessed with an 11-point numeric rating scale ranging from 0 (no pain) to 10 (worst possible pain). The LBPI score can be the daily average LBPI score.
The Roland Morris Disability Questionnaire (RMDQ) is an index of how well subjects with low back pain are able to function with regard to daily activities (Roland M, Fairbank. The Roland-Morris Questionnaire and the Oswestry Disability Questionnaire. Spine. 2000; 25 (4)3115-3124). It is a low back pain-specific assessment of physical function with scores ranging from 0 to 24 (lower scores indicate better function).
(§1) Patients were also required to have documented history of previous inadequate treatment response to at least 3 different categories of agents commonly used and generally considered effective for the treatment of chronic low back pain. Patients were required to discontinue all medications for the treatment of chronic low back pain during the primary efficacy assessment period (up to Week 16).
Approximately 1800 patients were planned to be randomized initially in a 2:2:2:3 ratio to 1 of 4 following treatment groups:
1. Placebo administered SC at an 8-week interval plus placebo matching tramadol PR up to Week 16. At the Week 16 visit, patients in this group were switched in a blinded fashion in a 1:1 ratio to either tanezumab 5 mg or tanezumab 10 mg administered SC at an 8 week interval plus placebo matching tramadol PR to Week 56;
2. Tanezumab 5 mg SC administered at an 8-week interval plus placebo matching tramadol PR to Week 56;
3. Tanezumab 10 mg SC administered at an 8-week interval plus placebo matching tramadol PR to Week 56;
4. Oral tramadol PR 100-300 mg daily plus placebo administered SC at an 8-week interval to Week 56.
To achieve the initial randomization and intended re-randomization at Week 16 for placebo patients, a randomization ratio 1:1:2:2:3 for placebo→tanezumab 5 mg (at Week 16), placebo→tanezumab 10 mg (at Week 16), tanezumab 5 mg, tanezumab 10 mg, and tramadol PR was used at the beginning of the trial.
Table 2 summarizes the requirements for analgesic medication usage prior to Screening and the requirements for LBPI and Patient's Global Assessment (PGA) of CLBP. The current study enrolled patients who were more refractory to standard of care treatments for CLBP and had higher LBPI scores at Baseline.

Series [4] has the same test system. As to the kind of experiment: Study 1059: adverse events and adjudicated joint safety. The class given is in vivo, human.
Description: For subjects who are identified with a possible or probable joint event (i.e., rapidly progressive osteoarthritis, subchondral insufficiency fractures, spontaneous osteonecrosis of the knee (SPONK), primary osteonecrosis or pathological fracture) and subjects undergoing total joint replacement for any reason, all images and other source documentation may be provided to the blinded Adjudication Committee for review and adjudication of the event. The Adjudication Committee's assessment of the event may represent the final classification of the event.
as §1

Setting [5] is: 100 mg BID, 56-week treatment period.

Take `Cc1ccc(-c2cc(C(F)(F)F)nn2-c2ccc(S(N)(=O)=O)cc2)cc1` [celecoxib]: in series [1], the “Proportion of Patients with ≥50% Improvement in LBPI at Week 16 (Mixed BOCF/LOCF)” value was “(32.6%)”. Further, in series [1] (ITT), the “Change from Baseline to Week 16 in LBPI (Multiple Imputation), LS Mean” value is listed as −2.28 and the “Change from Baseline to Week 16 in RMDQ (Multiple Imputation), LS Mean” value is −3.84. Also, in series [2] (100 mg BID), the “frequency of adverse events of potential sympathetic dysfunction” value came out at 7.6%; the “incidence of composite joint safety endpoint” value was 0%; the “observation-time adjusted rate of composite joint safety endpoint” value came to 0 event/1000 patient-years; the “patients who met criteria for adjudication of a joint safety event, number” value turned out to be 1 patient. Also, in series [2] (setting [5]), the “incidence of serious adverse events” value was determined as 2.2% and the “overall incidence of adverse events” value was 67.4%. For the same compound, in series [2] (100 mg BID, during the study), the “Composite Joint Safety Endpoint, n (%)” value is listed as 0 n (%); the “Pathological Fracture, n (%)” value is given as 0 n (%); the “Patients analyzed by the Adjudication Committee, n (%)” value was 1 (1.1%) n (%); the “Patients with Only Normal Progression of OA, n (%)” value is reported as 0 n (%). Besides, in series [2] (100 mg BID, during the study), the “Patients with Other Joint Outcome, n (%)” value is on record as 1 (1.1%) n (%); the “Primary Osteonecrosis, n (%)” value is reported as 0 n (%); the “RPOA type 1, n (%)” value is recorded as 0 n (%); the “RPOA type 2, n (%)” value is 0 n (%). In series [2] (100 mg BID, during the study), the “RPOA, n (%)” value is recorded as 0 n (%) and the “Subchondral Insufficiency Fracture, n (%)” value is 0 n (%). In series [2] (100 mg BID, treatment period), the “Arthralgia, number (%) of patients” value is given as 6 (6.5) n (%); the “Back pain, number (%) of patients” value is listed as 4 (4.3) n (%); the “Contusion, number (%) of patients” value is recorded as 2 (2.2) n (%); the “Diarrhoea, number (%) of patients” value is listed as 3 (3.3) n (%). Moreover, in series [2] (100 mg BID, treatment period), the “Discontinued from study due to Adverse Event, number (%) of patients” value was 0 n (%); the “Discontinued study drug due to Adverse Event and continued study, number (%) of patients” value is on record as 4 (4.3) n (%); the “Discontinued study drug due to Adverse Event, number (%) of patients” value is on record as 4 (4.3) n (%); the “Fall, number (%) of patients” value is 3 (3.3) n (%). In series [2] (100 mg BID, treatment period), the “Gastroenteritis, number (%) of patients” value is on record as 3 (3.3) n (%); the “Headache, number (%) of patients” value is given as 2 (2.2) n (%); the “Hypertension, number (%) of patients” value was 3 (3.3) n (%); the “Hypoaesthesia, number (%) of patients” value is listed as 3 (3.3) n (%). Further, in series [2] (100 mg BID, treatment period), the “Intervertebral disc protrusion, number (%) of patients” value is 3 (3.3) n (%); the “Musculoskeletal pain, number (%) of patients” value is on record as 3 (3.3) n (%); the “Myalgia, number (%) of patients” value is 1 (1.1) n (%); the “Nasopharyngitis, number (%) of patients” value is given as 6 (6.5) n (%). Besides, in series [2] (100 mg BID, treatment period), the “Pain in extremity, number (%) of patients” value was 3 (3.3) n (%); the “Pneumonia, number (%) of patients” value is given as 1 (1.1) n (%); the “Pyrexia, number (%) of patients” value is reported as 4 (4.3) n (%); the “Serious Adverse Event, number (%) of patients” value is recorded as 2 (2.2) n (%). In series [2] (100 mg BID, treatment period), the “Severe Adverse Event, number (%) of patients” value is on record as 1 (1.1) n (%); the “frequency of adverse events of abnormal peripheral sensation” value worked out at 4.3%; the “incidence of discontinuations from treatment due to an adverse event” value is on record as 4.3%. For the same compound, the “Adverse Event, number (%) of patients” value in series [2] (100 mg BID, treatment period, all causalities) is recorded as 62 (67.4) n (%). The “patients who met criteria for adjudication of joint safety outcome” value in series [2] (celecoxib-treated patients, 80-week observation period) turned out to be 1.1%.

`COc1ccc2cc([C@H](C)C(=O)O)ccc2c1` [naproxen]: in the series on low back pain, the “LBPI endpoints relative to placebo” value was “significant differences relative to placebo” and the “RMDQ endpoint relative to placebo” value was “not the RMDQ endpoint”.

With `COc1cccc(C2(O)CCCCC2CN(C)C)c1` (stereo not drawn) [Tramadol PR, tramadol, reference compound], in series [3], the “LBPI change from Baseline to Week 2, Difference vs. plc” value is −0.19; the “LBPI change from Baseline to Week 16, LS Mean” value is −2.81; the “Proportion of patients with ≥50% improvement in LBPI at Week 16” value is on record as “(42.8) %”; the “RMDQ change from Baseline to Week 16, Difference vs. plc” value is listed as −0.26. For the same compound, in series [3], the “RMDQ change from Baseline to Week 16, LS Mean” value is −5.21; the “percentage of patients achieving ≥30% improvement in LBPI at week 16” value was 57.9%; the “≥30% improvement in LBPI at week 16, odds ratio versus placebo” value was 1.08; the “≥50% improvement in LBPI at Week 16, OR vs. plc” value came out at 1.25. In series [4] (100-300 mg daily oral), the “incidence of composite joint safety endpoint” value amounted to 0.2%; the “observation-time adjusted rate of composite joint safety endpoint” value was determined as 1.9 events/1000 patient-years; the “patients with joint safety event adjudicated to RPOA Type 1” value came out at 0.2%; the “patients with joint safety event adjudicated to RPOA Type 1, number” value amounted to 1 patients. The “patients with adjudicated event of RPOA” value in series [4] (tramadol PR-treated patients) worked out at 0.2%. In series [4] (tramadol PR-treated patients, 80-week observation period), the “patients with joint safety event requiring adjudication” value was 0.7%.
